From patent US10758518B2, “Compounds and compositions for treating hematological disorders” (Curis, Inc., priority 2017, dated 2020)

Columns and labels:
[1] = test system: SU-DHL-2 cells (MYD88-S222R); experiment: In vivo tumor growth inhibition in ABC-DLBCL tumor model (SU-DHL-2 xenograft); details: SU-DHL-2 in female SCID Beige mice; 27 continuous days qd po; Compound A/CA-4948 100 mg/kg, venetoclax 75 mg/kg
Experimental: Female SCID Beige mice were implanted with SU-DHL-2 cells which harbor MYD88-S222R pathway activating mutations. The mice were treated with Compound A (100 mg/kg, qd, po, suspension in 0.5% Tween 20 and 0.25% hydroxyethyl cellulose), venetoclax (75 mg/kg, qd, po, solution in 60% phosal 50PG, 30% PEG 400, and 10% ethanol) or the combination for 27 continuous days.
All in life data acquisition, including body weight, tumor length, tumor diameter, tumor ulceration, clinical signs and animal mortality was collected in Study Director. Tumor ulceration was scored on a 6 level system with severity of 4 or higher requiring attention. At the end of the study (24 hours after the last dose), all surviving animals were examined externally for possible clinical abnormalities or adverse clinical signs, weighed and tumor measurements were taken for the last time.

[2] = test system: ABC-DLBCL PDX tumors; experiment: ABC-DLBCL PDX tumors (MYD88 and CD79B double mutants); format: in vivo; details: activating mutations in TLR/IL-1R and BCR pathways (MYD88 and CD79B double mutants)
[3] = test system: OCI-LY3; experiment: ABC-DLBCL MYD88-L265P xenograft tumor model, OCI-LY3; format: in vivo
[4] = test system: OCI-LY10; experiment: ABC-DLBCL MYD88-L265P xenograft tumor model, OCI-LY10 (dose response); format: in vivo
[5] = test system: ABC-DLBCL cell line OCI-Ly10 (MYD88-L265P, CD79A ITAM); experiment: In vivo tumor growth inhibition in ABC-DLBCL tumor model (OCI-Ly10 xenograft); details: OCI-Ly10 in female SCID Beige mice; 21 continuous days qd po; Compound A 50 mg/kg, venetoclax 75 mg/kg
Experimental: Female SCID Beige mice were implanted with the ABC-DLBCL cell line OCI-Ly10, which harbors TLR (MYD88-L265P) and BCR (CD79A ITAM) pathway activating mutations. The mice were treated with Compound A (50 mg/kg, qd, po, suspension in 0.5% Tween 20 and 0.25% hydroxyethyl cellulose), venetoclax (75 mg/kg, qd, po, solution in 60% phosal 50PG, 30% PEG 400, and 10% ethanol) or the combination for 21 continuous days.
After the 21-day drug treatment period, the mice were given a 19-day dosing holiday. […] After the 19-day drug holiday, dosing of the respective drug treatments was reinstated to each cohort.

| Structure (SMILES) | TGI % (Day 28) [1] | efficacy in PDX tumors [2] | efficacy in xenograft tumor model [3] | efficacy in xenograft tumor model [4] | tumor growth inhibition (TGI) [5] |
| --- | --- | --- | --- | --- | --- |
| Cc1cc(-c2nc(C(=O)Nc3cc4oc(N5CCOCC5)nc4nc3N3CC[C@@H](O)C3)co2)ccn1 [Compound A] | 66% | efficacious | dose-dependent efficacy | dose-dependent efficacy | 63% |
| CC1(C)CCC(CN2CCN(c3ccc(C(=O)NS(=O)(=O)c4ccc(NCC5CCOCC5)c([N+](=O)[O-])c4)c(Oc4cnc5[nH]ccc5c4)c3)CC2)=C(c2ccc(Cl)cc2)C1 [venetoclax, reference compound] |  |  |  |  | 71% |
